According to US10118947B2, “Modulation of structured polypeptide specificity” (BICYCLE THERAPEUTICS LIMITED, priority 2013, dated 2018):
Like-named read-outs stand apart in the source and are kept apart here. Numbered stars: 1 amine (or outer) side, 2 acyl side, 3 side chain; on linkers, the order of the positions; unused ones are H or OH. Bridge positions count the residues as written; N and C are the ends. Square brackets hold non-standard residues; d marks the D form. Peptide text beside a SMILES is read from it. Phe(4-guanidino) = N=C(N)Nc1ccc(C[C@H](N)C(=O)O)cc1; TBMB = c1c(C[*:1])cc(C[*:3])cc1C[*:2]; NMeR = CN[C@@H](CCCNC(=N)N)C(=O)O; hArg = N=C(N)NCCCC[C@H](N)C(=O)O; Aze = O=C(O)[C@@H]1CCN1

Key:
[1] = Plasma stability profiling Method #1 (MALDI-TOF, 35% plasma), rat plasma; format: in vitro ADME; conditions: comparative stabilities estimated according to method #1
Method in brief: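 Qualitative test: 200 µM peptide incubated at 37 °C in 35% rat or human citrated plasma supplemented with PBS, sampled at 0, 3, 24 h then daily up to 10 days. Parent mass tracked by MALDI-TOF; value is time until parent peptide no longer detectable.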

rat plasma Kallikrein = biological target: T1, rat plasma Kallikrein (Rattus norvegicus, UniProt P14272); conditions: Table 1; read-out: Ki (nM) (rat kallikrein); cited from earlier work
T1 construct: polyhistidine tag (N, cleaved yes); proTEV cleavage site (pro-peptide linker) (N, cleaved yes); made in house; host or cells: HEK-293 (suspension-adapted)

[2] = Table 1; Method #1; cited from earlier work
[3] = Quantitative plasma stability Method #3 (LC-MS, 95% plasma), rat plasma; format: in vitro ADME
Procedure: (§1) To obtain plasma stability quantitatively, peptide stock solutions (1 mM in DMSO) were shipped to Biofocus, UK, who performed the analysis. Peptides were diluted to 100 uM with water, and diluted 1:20 in plasma (5 uM final concentration, with the plasma at 95%), sampled as appropriate, precipitated as above, and quantified using a Waters Xevo TQ-MS.

[4] = Quantitative plasma stability Method #3 (LC-MS, 95% plasma), human plasma; format: in vitro ADME; conditions: human plasma (95%), Table 2, ex vivo human plasma, read-out: Human Plasma Stability (t½ in hrs) (converted)
Procedure: as §1

[5] = Table 1; Method #3; cited from earlier work
human plasma Kallikrein [6] = biological target: T2, human plasma Kallikrein (Homo sapiens, UniProt P03952); assay: Functional enzyme inhibition assay with fluorogenic substrate Z-PheArg-AMC, human plasma Kallikrein; format: biochemical; conditions: Table 2; read-out: Ki (nM) human Kai
T2 construct: purchased Stratech, UK
Method in brief: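 Human plasma kallikrein at 26.5 pM was preincubated 15 minutes with test peptide in Tris/NaCl/MgCl2/CaCl2/BSA buffer pH7.4 at 25° C, then Z-PheArg-AMC added to 100 μM final in 4% DMSO.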

human plasma Kallikrein [7] = biological target: T2, human plasma Kallikrein; assay: Phage binding assay of individual clones, homogeneous plate-based binding to biotinylated human plasma Kallikrein; conditions: for BINDING ASSAY SIGNAL: Table 19, fixed WPAR motif library, selection output clones
Procedure: Library transformant colonies were picked at random and grown as individual cultures in 2TY broth containing selective antibiotic. The picked colonies were DNA-sequenced using a QIAgen PyroMark Q96 DNA sequencer to reveal the amino-acid substitution present in each clone. Where isolated, a clone of each unique substitution was assayed for human plasma Kallikrein binding as follows. The phage-containing supernatant was harvested from the culture and phage were cyclised with tris bromomethyl benzene(TBMB) based on the methods of Heinis et al (Nature Chemical Biology vol. 5 pp 502-507 (2009)). The purified phage from this process were assayed for binding to biotinylated human plasma Kallikrein using a homogeneous plate-based binding assay; assay read-out measured on a BMG Labtech Pherastar FS plate reader. The quantitative binding data from triplicate assay samples was averaged (mean) and expressed as signal:background (where background was a sample assayed with no target material). The signal:background was expressed as a % of the parallel parent sample. Error bars denote standard deviation of the mean. Assays shown are representative of at least 2 independent experiments. The assay data was correlated with the peptide sequences. Substitutions marked in grey were not tested (a clone was not isolated from the random library sampling). A sample of a non-binding (arbitrary) bicycle was assayed in parallel to illustrate the assay baseline.
Library transformant colonies, or selection output colonies, were picked and grown as individual cultures in 2TY broth containing selective antibiotic. The picked colonies were DNA-sequenced using a QIAgen PyroMark Q96 DNA sequencer to reveal the amino-acid substitution present in each clone, and were assayed for human plasma Kallikrein binding as follows. The phage-containing supernatant was harvested from the culture and phage were cyclised with tris bromomethyl benzene (TBMB) based on the methods of Heinis et al (Nature Chemical Biology vol. 5 pp 502-507 (2009)). The purified phage from this process were assayed for binding to biotinylated human plasma Kallikrein using a homogeneous plate-based binding assay; assay read-out measured on a BMG Labtech Pherastar FS plate reader. The quantitative binding data from duplicate assay samples was averaged (mean) and expressed as signal:background. Assay data shown is representative of at least 2 independent experiments. The assay data was correlated with the peptide sequences.

human plasma Kallikrein [8] = biological target: T2, human plasma Kallikrein; assay: Phage selections against human plasma Kallikrein (abundance in selection output); format: binding; conditions: Table 17; relative abundance in the total selection outputs
Procedure: Glycerol stocks of phage libraries were diluted to OD600=0.1 in 500 ml 2YT/chloramphenicol (30 μg/ml) cultures and phage were produced at 30° C. over night (15-16 hrs). Phage were purified and chemically modified as described in Heinis, et al., Nat Chem Biol 2009, 5 (7), 502-7 Biotinylated hPK (3 μg) (IHPKA, from human plasma, Innovative Research, Novi, Mich., USA) was incubated with 50 μl pre-washed magnetic streptavidin beads (Dynal, M-280 from Invitrogen, Paisley, UK) for 10 minutes at RT. Beads were washed 3 times prior to blocking with 0.5 ml washing buffer (10 mM Tris-Cl, pH 7.4, 150 mM NaCl, 10 mM MgCl2, 1 mM CaCl2) containing 1% BSA and 0.1% Tween 20 for 30 minutes at RT with rotation. […] Blocked beads were then mixed with the blocked chemically modified phage and incubated for 30 minutes on a rotating wheel at
RT. Beads were washed 8 times with washing buffer containing 0.1% Tween 20 and twice with washing buffer before incubation with 100 μl of 50 mM glycine, pH 2.2 for 5 minutes. Eluted phage were transferred to 50 μl of 1 M Tris-Cl, pH 8 for neutralization, incubated with 30 ml TG1 cells at OD600=0.4 for 90 minutes at 37° C. and the cells were plated on large 2YT/chloramphenicol plates. One or two additional rounds of panning were performed using the same procedures. In the second round of selection, neutravidin-coated magnetic beads were used to prevent the enrichment of streptavidin-specific peptides. The neutravidin beads were prepared by reacting 0.8 mg neutravidin (Pierce, Rockford, Ill., USA) with 0.5 ml tosyl-activated magnetic beads (Dynal, M-280 from Invitrogen, Paisley, UK) according to the supplier's instructions.
The WPAR (SEQ ID No. 19) motif identified from Example 1 was analysed in the context of the 06-34-03 peptide, in order to identify alternatives or improvements to the WPAR motif. A library was constructed where positions 1, 6, 7, 8, 9 &10 of 06-34-03 were fixed and positions 2, 3, 4 & 5 were randomised (see ‘Randomisation of peptide domains—Library construction’ in Methods above). Selections against human plasma Kallikrein were performed at a variety of stringencies (see Phage selections' in Methods above). All output sequences were identified and analysed for target binding (see ‘Randomisation of peptide domains—Assay of binding of individual clones’ in Methods above). Table 17 lists each unique sequence, its relative abundance in the selection output (frequency), and a rank number according to target binding strength.

[9] = rat plasma (95%), Table 2, ex vivo rat plasma, Method #3, read-out: Rat Plasma Stability (t½ in hrs) (converted)

T1 sequence (P14272 391-638 limits assumed): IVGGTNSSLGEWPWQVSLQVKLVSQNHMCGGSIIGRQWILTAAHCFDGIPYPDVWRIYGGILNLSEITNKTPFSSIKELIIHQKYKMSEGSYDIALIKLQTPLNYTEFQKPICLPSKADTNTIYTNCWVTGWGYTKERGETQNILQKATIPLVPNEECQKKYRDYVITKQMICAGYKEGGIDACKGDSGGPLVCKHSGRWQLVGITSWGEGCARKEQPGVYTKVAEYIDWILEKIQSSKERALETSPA
T2 sequence (P03952 20-638): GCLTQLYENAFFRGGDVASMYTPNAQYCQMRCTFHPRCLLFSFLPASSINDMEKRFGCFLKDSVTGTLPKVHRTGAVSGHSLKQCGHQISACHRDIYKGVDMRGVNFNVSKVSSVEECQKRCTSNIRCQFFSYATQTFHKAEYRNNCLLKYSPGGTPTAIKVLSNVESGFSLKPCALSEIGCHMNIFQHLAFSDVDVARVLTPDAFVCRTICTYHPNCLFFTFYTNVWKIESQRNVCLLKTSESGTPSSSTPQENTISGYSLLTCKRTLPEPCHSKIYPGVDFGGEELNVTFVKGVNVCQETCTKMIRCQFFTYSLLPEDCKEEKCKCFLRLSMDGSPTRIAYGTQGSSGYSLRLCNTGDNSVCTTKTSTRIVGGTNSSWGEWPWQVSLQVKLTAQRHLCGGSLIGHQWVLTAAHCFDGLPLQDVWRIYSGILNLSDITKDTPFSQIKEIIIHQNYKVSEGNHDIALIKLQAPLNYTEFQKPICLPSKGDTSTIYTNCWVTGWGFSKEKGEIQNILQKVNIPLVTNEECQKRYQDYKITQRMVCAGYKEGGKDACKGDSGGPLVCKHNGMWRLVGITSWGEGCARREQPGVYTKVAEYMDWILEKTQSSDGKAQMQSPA

| BINDING ASSAY SIGNAL (human plasma Kallikrein [7]) | Molecule | Ki (rat plasma Kallikrein) | Observable in rat plasma, for days [2] | Observable in rat plasma, for days ([1]; Table 23) | half-life at 5 uM [3, 9] | half-life at 5 uM [4] | t1/2 (hrs) in rat plasma [5] | further results |
| --- | --- | --- | --- | --- | --- | --- | --- | --- |
| 59 | CLWPARCLTIELC |  |  |  |  |  |  |  |
| 83 | CSWPARCTHTDLC |  |  |  |  |  |  |  |

The remaining lines, values behind:

| Molecule | BINDING ASSAY SIGNAL (human plasma Kallikrein [7]) | Ki (rat plasma Kallikrein) | Observable in rat plasma, for days [2] | Observable in rat plasma, for days ([1]; Table 23) | half-life at 5 uM [3, 9] | half-life at 5 uM [4] | t1/2 (hrs) in rat plasma [5] | further results |
| --- | --- | --- | --- | --- | --- | --- | --- | --- |
| CC(=O)N[C@H]1CSCc2cc3cc(c2)CSC[C@H](NC(=O)[C@H](CCCCNC(=N)N)NC(=O)[C@H](C)NC(=O)[C@@H]2CCN2C(=O)[C@H](Cc2c[nH]c4ccccc24)NC(=O)[C@H](CO)NC1=O)C(=O)N[C@@H](CC(C)C)C(=O)N[C@@H](Cc1c[nH]cn1)C(=O)N[C@@H](CCC(N)=O)C(=O)N[C@@H](CC(=O)O)C(=O)N[C@@H](CC(C)C)C(=O)N[C@H](C(N)=O)CSC3 [Ac-(06-34-18) Aze3 HomoArg5] (Ac-CSW[Aze]A[hArg]CLHQDLC-NH2; linker 1-7-13 via TBMB) |  | 14.8 nM | >10 days |  |  |  |  | Observable in rat plasma, for days ([1]; Table 15): >10 days |
| CC(=O)N[C@H]1CSCc2cc3cc(c2)CSC[C@H](NC(=O)[C@H](CCCNC(=N)N)N(C)C(=O)[C@H](C)NC(=O)[C@@H]2CCN2C(=O)[C@H](Cc2c[nH]c4ccccc24)NC(=O)[C@H](CO)NC1=O)C(=O)N[C@@H](CC(C)C)C(=O)N[C@@H](Cc1c[nH]cn1)C(=O)N[C@@H](CCC(N)=O)C(=O)N[C@@H](CC(=O)O)C(=O)N[C@@H](CC(C)C)C(=O)N[C@H](C(N)=O)CSC3 [Ac-(06-34-18) Aze3 NMeArg5] (Ac-CSW[Aze]A[NMeR]CLHQDLC-NH2; linker 1-7-13 via TBMB) |  | 70.2 nM | >10 days |  |  |  |  | Observable in rat plasma, for days ([1]; Table 15): >10 days |
| CC(=O)N[C@H]1CSCc2cc3cc(c2)CSC[C@H](NC(=O)[C@H](Cc2ccc(NC(=N)N)cc2)NC(=O)[C@H](Cc2ccc(O)cc2)NC(=O)[C@@H]2CCCN2C(=O)[C@H](Cc2ccccc2)NC(=O)[C@H](CO)NC1=O)C(=O)N[C@@H](CC(C)C)C(=O)N[C@@H](Cc1c[nH]cn1)C(=O)N[C@@H](CCC(N)=O)C(=O)N[C@@H](CC(=O)O)C(=O)N[C@@H](CC(C)C)C(=O)N[C@H](C(N)=O)CSC3 [Ac-(06-34-18) Phe2 Tyr4 4GuanPhe5] (Ac-CSFPY[Phe(4-guanidino)]CLHQDLC-NH2; linker 1-7-13 via TBMB) |  | 0.6 nM | >10 days | >10 days | 5 h | 2.9 h | 5.0 h |  |
| CC(=O)N[C@H]1CSCc2cc3cc(c2)CSC[C@H](NC(=O)[C@H](CCCCNC(=N)N)NC(=O)[C@H](Cc2ccc(O)cc2)NC(=O)[C@@H]2CCCN2C(=O)[C@H](Cc2ccccc2)NC(=O)[C@H](CO)NC1=O)C(=O)N[C@@H](CC(C)C)C(=O)N[C@@H](Cc1c[nH]cn1)C(=O)N[C@@H](CCC(N)=O)C(=O)N[C@@H](CC(=O)O)C(=O)N[C@@H](CC(C)C)C(=O)N[C@H](C(N)=O)CSC3 [Ac-(06-34-18) Phe2 Tyr4 HomoArg5] (Ac-CSFPY[hArg]CLHQDLC-NH2; linker 1-7-13 via TBMB) |  | 16.2 nM | >10 days | >10 days | 12.2 h | 2.1 h | 12.2 h | t1/2 (hrs) in rat plasma ([3]; Table 23, method #3): 12.2 h; rat plasma stability enhanced by a factor ([3]; compared to parent Phe2 Tyr4 peptide): 13 |
| CC(=O)N[C@H]1CSCc2cc3cc(c2)CSC[C@H](NC(=O)[C@H](CCCNC(=N)N)N(C)C(=O)[C@H](Cc2ccc(O)cc2)NC(=O)[C@@H]2CCCN2C(=O)[C@H](Cc2ccccc2)NC(=O)[C@H](CO)NC1=O)C(=O)N[C@@H](CC(C)C)C(=O)N[C@@H](Cc1c[nH]cn1)C(=O)N[C@@H](CCC(N)=O)C(=O)N[C@@H](CC(=O)O)C(=O)N[C@@H](CC(C)C)C(=O)N[C@H](C(N)=O)CSC3 [Ac-(06-34-18) Phe2 Tyr4 NMeArg5] (Ac-CSFPY[NMeR]CLHQDLC-NH2; linker 1-7-13 via TBMB) |  | 64.3 nM | >10 days | >10 days | > 20 h | 1.7 h | >20 h | Ki (human plasma Kallikrein [6]): 4 nM; half-life at 5 uM ([3]; rat, plasma, Table 23, method #3, read-out: t1/2 (hrs) in rat plasma (converted)): > 20 h |
| CAWPARCTHDDLC | 84 |  |  |  |  |  |  |  |
| CQWPARCTHTDLC | 91 |  |  |  |  |  |  |  |
| CSWPYHCTHQDLC |  |  |  |  |  |  |  | RANK (human plasma Kallikrein [7]; Table 17, rank according to Kallikrein binding, positions 2-5 of 06-34-03 randomised): 39; FREQUENCY (human plasma Kallikrein [8]): 1 |
